Literature values as cited in patent publication US12194002B2, “Compositions and methods to improve the therapeutic benefit of suboptimally administered chemical compounds including substituted hexitols such as dibromodulcitol” (priority 2011, dated 2025).

What was measured:
[1] = target: JAK2V617F mutant of the JAK2 tyrosine kinase (Homo sapiens, UniProt O60674, V617F)
Sequence of JAK2V617F mutant of the JAK2 tyrosine kinase (O60674 whole entry V617F): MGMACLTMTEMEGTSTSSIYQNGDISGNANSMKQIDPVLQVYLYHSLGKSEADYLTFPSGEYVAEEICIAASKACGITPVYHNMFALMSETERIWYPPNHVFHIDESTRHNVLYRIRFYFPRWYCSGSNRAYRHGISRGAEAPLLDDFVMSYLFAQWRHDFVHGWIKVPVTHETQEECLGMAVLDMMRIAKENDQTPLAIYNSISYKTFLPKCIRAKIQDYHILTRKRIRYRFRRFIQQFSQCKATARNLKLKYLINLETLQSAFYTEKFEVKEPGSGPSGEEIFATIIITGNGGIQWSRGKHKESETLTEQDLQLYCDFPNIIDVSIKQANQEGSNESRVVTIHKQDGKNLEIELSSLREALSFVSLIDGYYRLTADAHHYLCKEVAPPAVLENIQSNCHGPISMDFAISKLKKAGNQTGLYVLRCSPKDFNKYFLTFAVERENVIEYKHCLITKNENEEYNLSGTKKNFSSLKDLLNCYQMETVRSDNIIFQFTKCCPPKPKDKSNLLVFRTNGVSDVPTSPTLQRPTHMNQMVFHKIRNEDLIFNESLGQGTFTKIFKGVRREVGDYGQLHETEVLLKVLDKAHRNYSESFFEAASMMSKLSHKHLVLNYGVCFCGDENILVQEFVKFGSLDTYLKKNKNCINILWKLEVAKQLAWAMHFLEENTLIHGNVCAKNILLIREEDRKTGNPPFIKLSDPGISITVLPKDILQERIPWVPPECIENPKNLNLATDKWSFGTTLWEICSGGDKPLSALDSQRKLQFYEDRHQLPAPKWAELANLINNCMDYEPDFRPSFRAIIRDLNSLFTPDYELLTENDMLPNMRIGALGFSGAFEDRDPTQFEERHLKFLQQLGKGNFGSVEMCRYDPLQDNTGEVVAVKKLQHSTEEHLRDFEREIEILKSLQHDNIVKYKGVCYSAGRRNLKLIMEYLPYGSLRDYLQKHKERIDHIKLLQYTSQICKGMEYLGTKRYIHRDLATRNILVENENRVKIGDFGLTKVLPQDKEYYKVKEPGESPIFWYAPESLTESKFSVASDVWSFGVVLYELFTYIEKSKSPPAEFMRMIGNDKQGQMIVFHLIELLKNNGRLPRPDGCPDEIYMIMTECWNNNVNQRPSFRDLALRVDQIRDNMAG

| Inhibition of JAK2V617F mutant [1] | Absorption by the oral route | SMILES |
| --- | --- | --- |
| potent inhibitor | – | C#Cc1cccc(Nc2ncnc3cc(OCCOC)c(OCCOC)cc23)c1 [Tarceva, N-(3-ethynylphenyl)-6,7-bis(2-methoxyethoxy)quinazolin-4-amine] |
| – | rapid and fairly complete | O[C@H]([C@H](O)[C@@H](O)CBr)[C@H](O)CBr [dibromodulcitol] |
